Reference: patent EP0026867A1, “Peptidylphosphonic acids, their preparation and use, and pharmaceutical preparations containing them” (F. HOFFMANN-LA ROCHE & CO. Aktiengesellschaft, priority 1979, dated 1981)
≈ marks a conversion by molar mass, not a printed value.

Assays:
Experiment in all cases: in vitro antibacterial test (M.I.C.)
Type in all cases: cell-based
S. marcescens = settings: Serratia marcescens
Excerpt: (§1) Die folgende Tabelle gibt die Resultate von in vitro Versuchen unter Verwendung von (1R)-1-(L-Pyroglutamyl-L-norvalyl-L-norvalylamirio)-ethylphosphonsäure gegen einige repräsentative pathogene Mikroorganismen wieder.

S. faecalis = settings: Enterococcus faecalis
Excerpt: as §1

E. coli = settings: Escherichia coli
Excerpt: as §1

S. pyogenes = settings: Streptococcus pyogenes
Excerpt: as §1

Salmonella spp. = test system: Salmonella spp.
Excerpt: as §1

S. albus = settings: Staphylococcus albus
Excerpt: as §1

Shigella spp. = test system: Shigella spp.
Excerpt: as §1

H. influenzae = settings: Haemophilus influenzae
Excerpt: as §1

Klebsiella spp. = test system: Klebsiella spp.
Excerpt: as §1

S. pneumoniae = settings: Streptococcus pneumoniae
Excerpt: as §1

Question: With `CCC[C@H](NC(=O)[C@@H]1CCC(=O)N1)C(=O)N[C@@H](CCC)C(=O)N[C@@H](C)P(=O)(O)O` [Beispiel 1, (1R)-1-(L-Pyroglutamyl-L-norvalyl-L-norvalylamino)-ethylphosphonsäure] as the compound, how does the MIC (S. marcescens) read?
Answer: Its MIC is 30 µg/mL (≈ 69.1 µM).

Question: And the MIC (S. faecalis)?
Answer: Its MIC is 0.05 µg/mL (≈ 0.115 µM).

Question: And the MIC (E. coli)?
Answer: The MIC was 0.25 µg/mL (≈ 0.575 µM).

Question: What about the MIC (S. pyogenes) of the same compound?
Answer: Its MIC is 16 µg/mL (≈ 36.8 µM).

Question: What about the MIC (Salmonella spp.) of the same compound?
Answer: The MIC was 20 µg/mL (≈ 46 µM).

Question: What about the MIC (S. albus) of the same compound?
Answer: Its MIC is 16 µg/mL (≈ 36.8 µM).

Question: What about the MIC (Shigella spp.) of the same compound?
Answer: Its MIC is 1.1 µg/mL (≈ 2.53 µM).

Question: What about the MIC (H. influenzae) of the same compound?
Answer: Its MIC is 0.2 µg/mL (≈ 0.46 µM).

Question: What about the MIC (Klebsiella spp.) of the same compound?
Answer: The MIC was 16 µg/mL (≈ 36.8 µM).

Question: What about the MIC (S. pneumoniae) of the same compound?
Answer: Its MIC is 2.4 µg/mL (≈ 5.52 µM).
